Data as given in BigSolDB 2.1.

CC(=O)N[C@@H](C)C(=O)O
solubility (mole fraction)
Settings | 283.15 K | 288.15 K | 293.15 K | 298.15 K | 303.15 K | 308.15 K | 313.15 K | 318.15 K | 323.15 K
in 2-butanone | 0.0111 | 0.0132 | 0.0161 | 0.0186 | 0.0215 | 0.026 | 0.03 | 0.0358 | 0.0437
in acetone | 0.0224 | 0.028 | 0.0329 | 0.0372 | 0.0446 | 0.0524 | 0.0638 | 0.0819 | 0.103
in acetonitrile | 0.00594 | 0.00727 | 0.00871 | 0.0114 | 0.0136 | 0.0177 | 0.0226 | 0.0312 | 0.0385
in dimethyl carbonate | 0.00223 | 0.00261 | 0.00319 | 0.00376 | 0.00449 | 0.00543 | 0.00668 | 0.00841 | 0.0103
in ethanol | 0.111 | 0.127 | 0.138 | 0.156 | 0.174 | 0.198 | 0.217 | 0.235 | 0.267
in ethyl acetate | 0.00433 | 0.00521 | 0.0062 | 0.00718 | 0.00806 | 0.00947 | 0.0112 | 0.0131 | 0.0156
in isobutanol | 0.0571 | 0.063 | 0.0718 | 0.0798 | 0.0916 | 0.107 | 0.12 | 0.132 | 0.145
in isopentanol | 0.0527 | 0.0563 | 0.0636 | 0.0713 | 0.0823 | 0.0949 | 0.108 | 0.125 | 0.139
in isopropanol | 0.0781 | 0.0901 | 0.1 | 0.113 | 0.13 | 0.148 | 0.162 | 0.175 | 0.195
in methyl acetate | 0.00578 | 0.00705 | 0.00861 | 0.00997 | 0.0114 | 0.0135 | 0.0162 | 0.0196 | 0.0242
in n-butanol | 0.0633 | 0.0707 | 0.0784 | 0.0869 | 0.0982 | 0.114 | 0.127 | 0.143 | 0.157
in n-butyl acetate | 0.00354 | 0.00382 | 0.00417 | 0.00455 | 0.00504 | 0.00573 | 0.00654 | 0.00771 | 0.00892
in n-pentanol | 0.0516 | 0.0546 | 0.0621 | 0.0695 | 0.0805 | 0.0915 | 0.106 | 0.12 | 0.137
in n-propanol | 0.0858 | 0.0937 | 0.104 | 0.118 | 0.133 | 0.153 | 0.168 | 0.186 | 0.213
in n-propyl acetate | 0.003 | 0.00352 | 0.00421 | 0.00495 | 0.00558 | 0.00642 | 0.00755 | 0.00913 | 0.0109
in sec-butanol | 0.068 | 0.0759 | 0.0892 | 0.101 | 0.113 | 0.129 | 0.144 | 0.161 | 0.175
